# Assays:
# [1] = biological target: T1, Nicotinamide phosphoribosyltransferase (Homo sapiens, UniProt P43490); test: Inhibition of N-terminal 6His-tagged human NAMPT (unknown origin) expressed in Escherichia coli Rosetta (DE) cells incubated for 1 hr by […]
# [2] = biological target: Epidermal growth factor receptor (Homo sapiens, UniProt P00533, L861Q); test: Inhibition of human EGFR L861Q mutant by discoverX kinome scan assay
# [3] = biological target: Epidermal growth factor receptor (Homo sapiens, UniProt P00533, L858R); test: Inhibition of EGFR L858R mutant (unknown origin)
# Epidermal growth factor receptor (Homo sapiens, UniProt P00533, L858R), sequence (P00533 25-1210 L858R limits assumed): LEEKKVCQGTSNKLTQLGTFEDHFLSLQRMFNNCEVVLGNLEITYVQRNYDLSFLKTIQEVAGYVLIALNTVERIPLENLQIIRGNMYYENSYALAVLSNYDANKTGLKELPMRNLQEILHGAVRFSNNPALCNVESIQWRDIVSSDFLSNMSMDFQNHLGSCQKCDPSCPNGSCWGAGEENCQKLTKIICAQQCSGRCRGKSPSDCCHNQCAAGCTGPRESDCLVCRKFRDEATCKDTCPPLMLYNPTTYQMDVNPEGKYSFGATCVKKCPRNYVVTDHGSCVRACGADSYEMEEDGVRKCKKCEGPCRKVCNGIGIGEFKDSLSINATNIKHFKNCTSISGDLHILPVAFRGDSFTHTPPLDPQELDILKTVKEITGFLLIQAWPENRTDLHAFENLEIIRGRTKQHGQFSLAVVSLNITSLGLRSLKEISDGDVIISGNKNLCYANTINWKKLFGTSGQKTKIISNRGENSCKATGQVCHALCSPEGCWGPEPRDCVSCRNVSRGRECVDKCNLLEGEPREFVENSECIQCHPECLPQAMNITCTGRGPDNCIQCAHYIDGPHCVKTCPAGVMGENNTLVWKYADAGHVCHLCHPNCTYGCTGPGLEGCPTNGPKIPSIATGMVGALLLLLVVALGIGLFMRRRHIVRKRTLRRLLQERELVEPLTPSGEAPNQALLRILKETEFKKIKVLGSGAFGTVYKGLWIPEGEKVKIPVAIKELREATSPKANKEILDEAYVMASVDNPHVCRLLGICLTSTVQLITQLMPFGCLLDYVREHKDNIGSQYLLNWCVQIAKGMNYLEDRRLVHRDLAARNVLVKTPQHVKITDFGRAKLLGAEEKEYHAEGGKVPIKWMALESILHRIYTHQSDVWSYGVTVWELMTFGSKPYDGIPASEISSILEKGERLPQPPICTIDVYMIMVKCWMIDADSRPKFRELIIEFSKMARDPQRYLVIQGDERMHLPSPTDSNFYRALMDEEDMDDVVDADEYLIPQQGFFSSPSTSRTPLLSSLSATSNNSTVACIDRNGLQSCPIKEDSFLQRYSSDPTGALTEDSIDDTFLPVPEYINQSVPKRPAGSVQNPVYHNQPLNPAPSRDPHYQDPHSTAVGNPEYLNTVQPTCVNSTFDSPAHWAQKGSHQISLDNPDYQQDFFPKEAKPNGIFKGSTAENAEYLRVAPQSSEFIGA
# [4] = Clearance in ICR mouse at 5 mg/kg, po; type: ADME, organism-based; conditions: in vivo
# [5] = Clearance in Beagle dog at 5 mg/kg, po; type: ADME, organism-based, Canis lupus familiaris; conditions: in vivo
# [6] = Oral bioavailability in ICR mouse at 5 mg/kg by LC-MS/MS analysis; type: ADME, organism-based; conditions: in vivo
# [7] = Clearance in cynomolgus monkey at 5 mg/kg, po; type: ADME, organism-based, Macaca fascicularis; conditions: in vivo
# [8] = Oral bioavailability in Sprague-Dawley rat at 5 mg/kg by LC-MS/MS analysis; type: ADME, organism-based; conditions: in vivo
# [9] = Clearance in Sprague-Dawley rat at 5 mg/kg, po; type: ADME, organism-based; conditions: in vivo
# [10] = Oral bioavailability in Cynomolgus monkey at 5 mg/kg; type: ADME, organism-based, Macaca fascicularis; conditions: in vivo
# COLO 205 = test: Antitumor activity against human COLO 205 cells xenografted in mouse model assessed as tumor growth inhibition at 15 mg/kg, po administered once daily for 7 days relative to control; type: functional; conditions: COLO 205, 168 h, time 7 day, read-out: TGI
# [11] = Oral bioavailability in Beagle dog at 5 mg/kg; type: ADME, organism-based, Canis lupus familiaris; conditions: in vivo
# [12] = AUC in CD-1 mouse at 2 mg/kg, iv; type: ADME, organism-based; conditions: in vivo
# [13] = Oral bioavailability in CD-1 mouse at 2 mg/kg; type: ADME, organism-based; conditions: in vivo
# [14] = biological target: T1, Nicotinamide phosphoribosyltransferase; test: Inhibition of NAMPT (unknown origin)
# [15] = Clearance in CD-1 mouse at 2 mg/kg, iv; type: ADME, organism-based; conditions: in vivo
# [16] = Cmax in CD-1 mouse at 2 mg/kg, iv; type: ADME, organism-based; conditions: in vivo
# [17] = Half life in mouse plasma at 5 mg/kg, iv by LC-MS/MS analysis; type: ADME, organism-based
# A2780 [18] = test: Antitumor activity against human A2780 cells xenografted in BALB/c nu/nu mouse assessed as tumor growth inhibition at 30 mg/kg, iv administered once daily for 2 weeks relative to control; type: functional; conditions: A2780, 336 h, read-out: TGI
# [19] = Cmax in mouse plasma at 30 mg/kg, ip measured upto 24 hrs by LC-MS/MS analysis; type: ADME, organism-based
# [20] = biological target: von Hippel-Lindau disease tumor suppressor/Nicotinamide phosphoribosyltransferase (Homo sapiens, UniProt P43490+P40337); test: Protac activity at VHL/NAMPT in human A2780 cells assessed as degradation of NAMPT using NAM as substrate pre-incubated for 30 mins followed by substrate addition measured for 1 hr in presence of ATP by luminescence based microplate reader analysis; type: cell-based
# von Hippel-Lindau disease tumor suppressor/Nicotinamide phosphoribosyltransferase, sequence (P43490 whole entry): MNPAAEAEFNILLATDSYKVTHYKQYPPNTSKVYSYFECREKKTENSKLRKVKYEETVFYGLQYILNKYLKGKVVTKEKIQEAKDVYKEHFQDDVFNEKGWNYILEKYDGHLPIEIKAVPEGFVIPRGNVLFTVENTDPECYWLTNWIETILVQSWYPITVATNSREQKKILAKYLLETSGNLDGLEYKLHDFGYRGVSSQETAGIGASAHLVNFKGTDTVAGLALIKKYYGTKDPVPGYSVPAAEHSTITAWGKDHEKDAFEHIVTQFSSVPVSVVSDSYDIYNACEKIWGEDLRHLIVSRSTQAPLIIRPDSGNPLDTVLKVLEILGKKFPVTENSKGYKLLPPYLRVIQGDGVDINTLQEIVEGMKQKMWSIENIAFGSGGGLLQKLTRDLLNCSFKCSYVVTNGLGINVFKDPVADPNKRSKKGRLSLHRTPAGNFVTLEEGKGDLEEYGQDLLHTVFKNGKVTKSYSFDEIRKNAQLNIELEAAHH
# von Hippel-Lindau disease tumor suppressor/Nicotinamide phosphoribosyltransferase, sequence (P40337 whole entry): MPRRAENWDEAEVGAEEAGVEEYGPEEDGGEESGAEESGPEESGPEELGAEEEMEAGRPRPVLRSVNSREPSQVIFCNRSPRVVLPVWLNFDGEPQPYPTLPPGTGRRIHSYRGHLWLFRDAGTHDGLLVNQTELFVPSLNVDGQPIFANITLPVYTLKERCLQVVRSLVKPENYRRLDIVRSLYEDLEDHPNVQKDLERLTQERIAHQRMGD
# A2780 [21] = test: Antiproliferative activity against human A2780 cells assessed as reduction in cell viability measured for 72 hrs by MTT assay; type: functional, cell-based; conditions: A2780, 72 h
# Histone deacetylase 1 = Histone deacetylase 1 (Homo sapiens, UniProt Q13547); test: Inhibition of human recombinant HDAC1 using Boc-Lys(Ac)-AMC as substrate preincubated for 30 mins followed by substrate addition measured for 1 hr by fluorescence based analysis
# Histone deacetylase 1, sequence (Q13547 whole entry): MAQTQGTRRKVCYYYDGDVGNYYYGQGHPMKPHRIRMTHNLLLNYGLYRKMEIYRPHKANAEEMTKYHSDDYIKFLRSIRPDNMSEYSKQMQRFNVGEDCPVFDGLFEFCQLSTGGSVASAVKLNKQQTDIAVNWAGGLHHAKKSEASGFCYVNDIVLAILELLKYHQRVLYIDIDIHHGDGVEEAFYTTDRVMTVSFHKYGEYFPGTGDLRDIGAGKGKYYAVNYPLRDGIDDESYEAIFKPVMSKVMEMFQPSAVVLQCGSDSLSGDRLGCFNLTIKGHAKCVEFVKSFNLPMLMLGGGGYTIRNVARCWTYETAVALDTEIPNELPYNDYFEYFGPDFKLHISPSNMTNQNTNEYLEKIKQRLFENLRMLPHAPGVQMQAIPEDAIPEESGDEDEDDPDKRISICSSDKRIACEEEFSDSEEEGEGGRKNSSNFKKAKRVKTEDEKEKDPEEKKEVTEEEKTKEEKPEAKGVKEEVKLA
# [22] = Oral bioavailability in mouse at 2 mg/kg; type: ADME, organism-based; conditions: in vivo
# A549 [23] = test: Antitumor activity against human A549 cells xenografted in BALB/c nude mouse assessed as tumor growth inhibition at 20 mg/kg, ip administered once daily for 20 days relative to control; type: functional; conditions: A549, 480 h, time 20 day, read-out: TGI
# A549 [24] = test: Antitumor activity against human A549 cells xenografted in BALB/c nude mouse assessed as tumor growth inhibition at 10 mg/kg, ip administered once daily for 20 days relative to control; type: functional; conditions: A549, 480 h, time 20 day, read-out: TGI
# SH-SY5Y = test: Antiproliferative activity against human SH-SY5Y cells assessed as cell growth inhibition measured for 48 hrs by MTT assay; type: functional, cell-based
# HCT-116 = test: Antitumor activity against human HCT-116 cells xenografted in […] mouse assessed as tumor growth inhibition at 15 mg/kg, po administered for 3 days relative to control; type: functional; conditions: HCT-116, 72 h, time 3 day, read-out: TGI
# Cytochrome P450 2C9 = Cytochrome P450 2C9 (Homo sapiens, UniProt P11712); test: Inhibition of CYP2C9 (unknown origin); type: ADME
# Cytochrome P450 2C9, sequence (P11712 whole entry): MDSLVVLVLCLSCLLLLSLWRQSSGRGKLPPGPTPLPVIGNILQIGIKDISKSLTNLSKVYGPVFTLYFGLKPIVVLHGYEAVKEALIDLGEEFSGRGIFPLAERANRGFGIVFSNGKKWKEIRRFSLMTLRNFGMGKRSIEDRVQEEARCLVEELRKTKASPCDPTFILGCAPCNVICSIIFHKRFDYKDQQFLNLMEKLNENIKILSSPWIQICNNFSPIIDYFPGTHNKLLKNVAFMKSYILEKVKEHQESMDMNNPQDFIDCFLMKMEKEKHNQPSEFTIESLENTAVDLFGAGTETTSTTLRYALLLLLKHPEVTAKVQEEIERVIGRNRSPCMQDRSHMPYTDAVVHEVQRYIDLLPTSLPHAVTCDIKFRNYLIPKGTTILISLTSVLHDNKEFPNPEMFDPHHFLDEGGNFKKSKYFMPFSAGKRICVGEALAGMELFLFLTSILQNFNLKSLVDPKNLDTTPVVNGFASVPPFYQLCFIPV
# [25] = Half life in Sprague-Dawley rat at 5 mg/kg, po measured for 24 hrs by LC/MS/MS analysis; type: ADME, organism-based; conditions: in vivo
# [26] = Oral bioavailability in Sprague-Dawley rat at 5 mg/kg; type: ADME, organism-based; conditions: in vivo
# Cytochrome P450 3A4 = Cytochrome P450 3A4 (Homo sapiens, UniProt P08684); test: Inhibition of CYP3A4 (unknown origin); type: ADME
# Cytochrome P450 3A4, sequence (P08684 whole entry): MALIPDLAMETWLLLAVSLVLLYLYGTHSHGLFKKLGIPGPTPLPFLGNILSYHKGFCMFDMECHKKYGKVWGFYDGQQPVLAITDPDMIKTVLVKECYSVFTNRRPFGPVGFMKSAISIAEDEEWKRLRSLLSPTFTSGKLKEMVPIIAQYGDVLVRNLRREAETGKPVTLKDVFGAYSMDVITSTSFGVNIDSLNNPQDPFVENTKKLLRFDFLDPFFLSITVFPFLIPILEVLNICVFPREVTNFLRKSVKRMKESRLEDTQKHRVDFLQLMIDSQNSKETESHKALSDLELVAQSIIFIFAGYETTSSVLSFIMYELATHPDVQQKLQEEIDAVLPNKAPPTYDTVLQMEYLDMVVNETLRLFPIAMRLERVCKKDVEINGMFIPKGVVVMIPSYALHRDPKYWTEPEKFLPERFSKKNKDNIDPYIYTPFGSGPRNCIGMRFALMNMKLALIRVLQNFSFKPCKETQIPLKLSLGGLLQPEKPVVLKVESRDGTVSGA
# MIA PaCa-2 = test: Antiproliferative activity against human MIA PaCa-2 cells assessed as reduction in cell viability incubated for 72 hrs by MTT assay; type: functional, cell-based; conditions: MIA PaCa-2, 72 h
# [27] = Cmax in Sprague-Dawley rat at 10 mg/kg, po by LC-MS analysis; type: ADME, organism-based; conditions: in vivo
# [28] = Oral bioavailability in Sprague-Dawley rat at 10 mg/kg by LC-MS analysis; type: ADME, organism-based; conditions: in vivo
# [29] = Clearance in Sprague-Dawley rat at 1 mg/kg, iv; type: ADME, organism-based; conditions: in vivo
# T1 sequence (P43490 whole entry): as the sequence (P43490 whole entry) above
# Epidermal growth factor receptor (Homo sapiens, UniProt P00533, L861Q), sequence (P00533 25-1210 L861Q limits assumed): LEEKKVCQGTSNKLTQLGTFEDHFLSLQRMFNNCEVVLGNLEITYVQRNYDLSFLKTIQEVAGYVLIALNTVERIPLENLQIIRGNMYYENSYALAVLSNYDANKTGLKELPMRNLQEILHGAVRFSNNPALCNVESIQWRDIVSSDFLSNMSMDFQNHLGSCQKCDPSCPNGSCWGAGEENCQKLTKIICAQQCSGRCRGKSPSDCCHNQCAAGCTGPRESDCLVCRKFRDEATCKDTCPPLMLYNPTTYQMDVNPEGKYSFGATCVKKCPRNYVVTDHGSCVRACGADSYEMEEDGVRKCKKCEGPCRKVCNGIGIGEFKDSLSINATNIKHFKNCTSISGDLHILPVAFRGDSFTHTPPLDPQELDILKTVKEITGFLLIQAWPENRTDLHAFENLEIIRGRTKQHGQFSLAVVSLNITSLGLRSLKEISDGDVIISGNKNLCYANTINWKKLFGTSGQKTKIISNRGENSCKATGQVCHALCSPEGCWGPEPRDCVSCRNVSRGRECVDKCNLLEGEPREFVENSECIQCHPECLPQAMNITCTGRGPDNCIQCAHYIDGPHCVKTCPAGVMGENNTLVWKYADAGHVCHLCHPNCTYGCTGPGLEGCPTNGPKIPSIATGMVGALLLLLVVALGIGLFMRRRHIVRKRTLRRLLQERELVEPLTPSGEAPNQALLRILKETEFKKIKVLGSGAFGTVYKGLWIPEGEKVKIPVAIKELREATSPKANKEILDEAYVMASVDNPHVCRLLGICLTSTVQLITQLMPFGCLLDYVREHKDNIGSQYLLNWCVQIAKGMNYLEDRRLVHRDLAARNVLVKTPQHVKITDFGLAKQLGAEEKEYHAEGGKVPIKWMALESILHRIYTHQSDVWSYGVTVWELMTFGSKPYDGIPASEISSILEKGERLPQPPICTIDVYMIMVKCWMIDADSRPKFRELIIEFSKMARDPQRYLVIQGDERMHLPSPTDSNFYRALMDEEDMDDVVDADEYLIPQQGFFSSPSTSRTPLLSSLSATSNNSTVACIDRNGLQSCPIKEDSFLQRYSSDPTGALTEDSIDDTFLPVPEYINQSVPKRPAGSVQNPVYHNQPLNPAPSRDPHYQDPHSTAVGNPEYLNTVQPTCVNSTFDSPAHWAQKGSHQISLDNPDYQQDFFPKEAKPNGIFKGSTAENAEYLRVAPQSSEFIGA
smiles,measurement,setting,value
CC(=O)NCc1ncc2cc(COc3ccc(C(=O)NCc4cccnc4)cc3)n(CCC3CCCCC3)c2n1,IC50,[1],4.3 nM
C#Cc1cccc(Nc2ncnc3cc(OC)c(OCCCCCCCN/C(=N\C#N)Nc4ccncc4)cc23)c1,IC50,[2],0.49 nM
same,IC50,[3],0.48 nM
O=C(NCc1ccc(S(=O)(=O)c2cc(F)cc(F)c2)cc1)c1ccc2nccn2c1,CL/F,[4],36.4 mL/min/kg
same,CL/F,[5],4.62 mL/min/kg
same,bioavailability,[6],29.7%
same,CL/F,[7],9.14 mL/min/kg
same,bioavailability,[8],33.9%
same,CL/F,[9],19.3 mL/min/kg
same,bioavailability,[10],29.4%
same,inhibition in vivo at 15 mg/kg,COLO 205,57%
same,bioavailability,[11],65.2%
CC(C)(O)CS(=O)(=O)Nc1ccc2c(c1)CCN(C(=O)COc1cccnc1)C2,AUC,[12],195 nM·h
same,bioavailability,[13],39%
same,IC50,[14],3.2 nM
same,clearance,[15],159 mL/min/kg
same,Cmax,[16],57 nM
CCCn1c(=O)c(-c2ccc(C(=O)NCc3cccnc3)cc2)nc2ccc(NC(=O)CCCCCCCCCCC(=O)N[C@H](C(=O)N3C[C@H](O)C[C@H]3C(=O)N[C@@H](C)c3ccc(-c4scnc4C)cc3)C(C)(C)C)cc21,half-life,[17],593 min
same,inhibition in vivo at 30 mg/kg,A2780 [18],73%
same,Cmax,[19],166 nM
same,DC50,[20],8.4 nM
Cc1ccc(C(=O)N(CCCNC(=O)CCCCCCCCN2CCN(S(=O)(=O)c3ccc(NC(=S)NCc4cccnc4)cc3)CC2)[C@@H](c2nc3cc(Cl)ccc3c(=O)n2Cc2ccccc2)C(C)C)cc1,IC50,[14],490 nM
same,IC50,A2780 [21],46 nM
Nc1ccccc1NC(=O)c1ccc(Cn2cc(-c3ccc(C(=O)NCc4cccnc4)cc3)nn2)cc1,IC50,Histone deacetylase 1,55 µM
Cc1c(CNc2ccc(CCNC(=O)/C=C/c3cccnc3)cc2)oc2c1C(=O)C(=O)c1c-2ccc2c1CCCC2(C)C,bioavailability,[22],5.8%
same,inhibition in vivo at 20 mg/kg,A549 [23],52.1%
same,inhibition in vivo at 10 mg/kg,A549 [24],44.2%
O=C(NCCCCCCCn1cc(-c2cccnc2)nn1)c1cccc(-n2cc(CN3CCC(O)CC3)nn2)c1,IC50,[14],13.6 nM
same,IC50,SH-SY5Y,> 10 µM
CN1CCN(Cc2cn(-c3cccc(C(=O)NCCCCCCCn4cc(-c5cccnc5)nn4)c3)nn2)CC1,IC50,[14],41.8 nM
same,IC50,SH-SY5Y,> 10 µM
CC(C)(O)CC(=O)N1CCC(c2ccc(NC(=O)N3Cc4ccccc4C3)cc2)CC1,inhibition in vivo at 15 mg/kg,HCT-116,90%
same,IC50,Cytochrome P450 2C9,> 20 µM
same,half-life,[25],288 min
same,bioavailability,[26],100%
same,IC50,Cytochrome P450 3A4,> 20 µM
COC[C@H]1N[C@@H](c2ccc(NC(=O)c3ccc(CNS(=O)(=O)c4ccc(C(C)(C)C)cc4)cc3)cc2)[C@H](OC)[C@@H]1OC,IC50,MIA PaCa-2,32 µM
O=C(/C=C/c1cccnc1)NCCCCC1CCN(C(=O)c2ccc(N3CCN(CCCCCCC#Cc4cccc5c4CN(C4CCC(=O)NC4=O)C5=O)CC3)cc2)CC1 (configuration not stated),Cmax,[27],135 ng/mL
same,bioavailability,[28],23.2%
O=C(NC[C@@H]1CCOC1)c1ccc(NC(=O)N2Cc3ccccc3C2)cc1,inhibition in vivo at 15 mg/kg,HCT-116,78%
same,clearance,[29],4.33 mL/min/kg
same,half-life,[25],180 min

# From ChEMBL document CHEMBL5518156, “Recent advances of targeting nicotinamide phosphoribosyltransferase (NAMPT) for cancer drug discovery” (Eur J Med Chem, 2023)
